Measured values: patent publication US6548508B2, “Use of PDE V inhibitors for improved fecundity in mammals” (Pfizer, Inc., priority 2000, dated 2003)

Assays:
pregnant rats = assay: Birthweights of rat pups after s.c. dosing of pregnant rats throughout gestation; type: in vivo; details: for % increase (birthweights of rat pups): pregnant rats n=10; for embryonic/foetal growth and birthweight (in words, FIG. 1): s.c. daily 0.3, 1 and 5 mg/kg, gestation days 1-21, pregnant rats
Experimental: To evaluate the effects of cGMP PDE V inhibition on embryonic and foetal growth, 3-ethyl-5-[5-(4-ethylpiperazin-1-ylsulphonyl)-2-n-propoxyphenyl]-2-(pyridin-2-yl)methyl-2,6-dihydro-7H-pyrazolo[4,3-d]pyrimidin- 7-one was administered s.c. daily in an aqueous micelle formulation at the rate of 0.3, 1 and 5 mg/kg to pregnant rats. The results are illustrated in FIG. 1.
A comparative experiment using a similar protocol was carried out using (A) 3-ethyl-5-[5-(4-ethylpiperazin-1-ylsulphonyl)-2-n-propoxyphenyl]-2-(pyridin-2-yl)methyl-2,6-dihydro-7H-pyrazolo[4,3-d]pyrimidin-7-one and the Lilly-ICOS PDE V inhibitor (B) CILIAS/IC-351. The compounds were administered throughout gestation subcutaneously to pregnant rats (n=10) and the birthweights of their corresponding rat pups were measured.

Friesian cross heifers = assay: Intra-vaginal dosing of Friesian cross heifers: plasma progesterone and uterine horn histology; type: in vivo, cattle; details: intra-vaginally twice daily, 30 days, uterine horn cross-sections
Experimental: Twenty-seven (27) female Friesian cross heifers, approximately 24 months of age were allocated randomly to three treatment groups control, 50 mg and 250 mg of the PDE V inhibitor administered intra-vaginally twice daily. Oestrous was synchronised using two intramuscular injections of PGF2 alpha (Lutalyse™) administered 11 days apart. The PDE V inhibitor was administered intra-vaginally twice daily from day −3 of oestrus until day 6 of the following oestrus (30 days in total). Blood samples were collected daily, plasma was prepared as soon as possible and stored at −20 DEG C. and then analysed for progesterone. At the completion of the study (ie day 6 of the second oestrous period) the cattle were euthanised and the reproductive tract collected. A cross section of the left and right horns of each uterus was collected and stored in 10% Formalin and then analysed histologically.

Mini-pigs = assay: Model of uterine blood flow and mean arterial blood pressure in mini-pigs; type: in vivo; details: intravenous
Excerpt: A model of uterine blood flow was established to assess the effects of PDE V inhibition on uterine flow and mean arterial blood pressure (MAP). Mini-pigs weighing approximately 30 kg were modified surgically. As a means of quantifying real time uterine blood flow a Transoinc blood flow probe was placed around either the left or right uterine artery. Catheters were inserted into a external jugular vein and a carotid artery for blood sampling/administration of compound and measurement of mean arterial blood pressure (MAP) respectively. Test compound was administered intravenously either during oestrous or the luteal phase of the reproductive cycle and the effects of PDE V inhibition on uterine blood flow and MAP were measured. The Y-axis for the two left hand bars is uterine blood flow (ml/min.), and for the two right hand bars is MAP (mmHg).

CBA × DBA mice = assay: Embryo survival in CBA × DBA mice, i.p. dosing during gestation; type: in vivo; details: for % Embryo Survival: assessed day 12
Experimental: Female mice of the CBA strain (obtained from Charles River, UK) were crossed with male mice of the DBA strain (obtained from Charles River, UK) and treated i.p. with 3-ethyl-5-[5-(4-ethylpiperazin-1-ylsulphonyl)-2-n-propoxyphenyl]-2-(pyridin-2-yl)methyl-2,6-dihydro-7H-pyrazolo[4,3-d]pyrimidin-7-one at the rate of either 1 mg/kg or 3′mg/kg on days 1 to 8 of gestation. The mice were euthanised on day 12 of gestation and the numbers of viable and non-viable embryos were determined relative to corresponding control mice.
Female mice of the CBA strain (obtained from Charles River, UK) were crossed with male mice of the DBA strain (obtained from Charles River, UK) and treated i.p. with 3-ethyl-5-[5-(4-ethylpiperazin-1-ylsulphonyl)-2-n-propoxyphenyl]-2-(pyridin-2-yl)methyl-2,6-dihydro-7H-pyrazolo[4,3-d]pyrimidin-7-one at the rate of 1 mg/kg on days 1 to 4 or 4 to 8 of gestation. The mice were euthanised on day 12 of gestation and the numbers of viable and non-viable embryos were determined relative to corresponding control mice.

[1] = test system: patients undergoing in vitro fertilisation (IVF) with prior poor endometrial response; details: Hum. Reprod., 2000, 15(4), 806-809; cited from earlier work
[2] = 0.3 mg/kg s.c. throughout gestation
[3] = 1 mg/kg s.c. throughout gestation
[4] = 5 mg/kg s.c. throughout gestation

SMILES: CCCOc1ccc(S(=O)(=O)N2CCN(CC)CC2)cc1-c1nc2c(CC)n(Cc3ccccn3)nc2c(=O)[nH]1 [A, 3-ethyl-5-[5-(4-ethylpiperazin-1-ylsulphonyl)-2-n-propoxyphenyl]-2-(pyridin-2-yl)methyl-2,6-dihydro-7H-pyrazolo[4,3-d]pyrimidin-7-one]
- % increase (birthweights of rat pups) (pregnant rats; [2]): 2%
- % increase (birthweights of rat pups) (pregnant rats; [3]): 6%
- % increase (birthweights of rat pups) (pregnant rats; [4]): 10%
- % increase (birthweights of rat pups) (pregnant rats; 10 mg/kg s.c. throughout gestation): 12%
- comparison of effectiveness on birth weights of rat pups (pregnant rats; A versus B, s.c. throughout gestation): more effective than compound B
- embryonic/foetal growth and birthweight (in words, FIG. 1) (pregnant rats; listed as 3-ethyl-5-(5-(4-ethylpiperazin-1-ylsulphonyl)-2-n-propoxyphenyl)-2-(pyridin-2-yl)): increases birthweights of rat puts
- endometrial epithelial thickness relative to control (FIG. 5) (Friesian cross heifers): increases endometrial epithelial thickness relative to control animals
- mean arterial blood pressure (MAP) (FIG. 2) (Mini-pigs): No significant effect on mean arterial blood pressure
- uterine blood flow relative to control (FIG. 2) (Mini-pigs): improves significantly uterine blood relative to control animals
- % Embryo Survival (CBA × DBA mice; 1 mg/kg i.p. daily, days 1-4 of gestation, control 54): 81%
- % Embryo Survival (CBA × DBA mice; 1 mg/kg i.p. daily, days 1-8 of gestation, control 51): 90%
- % Embryo Survival (CBA × DBA mice; 1 mg/kg i.p. daily, days 4-8 of gestation, control 54): 70%
- % Embryo Survival (CBA × DBA mice; 3 mg/kg i.p. daily, days 1-8 of gestation, control 51): 84%

SMILES: CCCc1nn(C)c2c(=O)[nH]c(-c3cc(S(=O)(=O)N4CCN(C)CC4)ccc3OCC)nc12 [sildenafil, 5-[2-ethoxy-5-(4-methyl-1-piperazinylsulphonyl)phenyl]-1-methyl-3-n-propyl-1,6-dihydro-7H-pyrazolo[4,3-d]pyrimidin-7-one]
- uterine artery blood flow and endometrial development [1]: may be effective for improving uterine artery blood flow and endometrial development

SMILES: CN1CC(=O)N2[C@H](c3ccc4c(c3)OCO4)c3[nH]c4ccccc4c3C[C@@H]2C1=O [B, (6R, 12aR)-2,3,6,7,12,12a-hexahydro-2-methyl-6-(3,4-methylenedioxyphenyl)-pyrazino[2′,1′:6,1]pyrido[3,4-b]indole-1,4-dione, reference compound]
- % increase (birthweights of rat pups) (pregnant rats; [2]): 0%
- % increase (birthweights of rat pups) (pregnant rats; [3]): 1%
- % increase (birthweights of rat pups) (pregnant rats; [4]): 5%

SMILES: CCCOc1ccc(S(=O)(=O)N2CCN(CC)CC2)cc1-c1nc2c(CC)n(Cc3ccccn3)nc2c(=O)[nH]1 [3-ethyl-5-[5-(4-ethylpiperazin-1-ylsulphonyl)-2-n-propoxyphenyl]-2-(pyridin-2-yl)methyl-2,6-dihydro-7H-pyrazolo[4,3-d]pyrimidin-7-one]
- embryonic/foetal growth and birthweight (in words, FIG. 1) (pregnant rats): promotes embryonic and/or foetal growth and consequently increases birthweight
- rate of embryo survival (in words) (CBA × DBA mice; days 1-4 or 4-8 of gestation): improved the rate of embryo survival in both cases
- rate of embryo survival and maintenance of pregnancy (in words) (CBA × DBA mice; days 1 to 8 of gestation, CBA×DBA mice): improves significantly the rate of embryo survival and the maintenance of pregnancy
